# Measurements as given in PubChem BioAssay (NCI).
#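 Interpolation was linear, between the two tested concentrations surrounding the appropriate level; five concentrations were tested over 48 hours in 96-well plates. Definition used: TGI = concentration required for complete inhibition of growth.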
# Legend:
# Test in all cases: growth of human tumour cells (NCI), 48 h
# OVCAR-5 ovarian = test system: OVCAR-5 ovarian
# PC-3 prostate = test system: PC-3 prostate
# HCT-116 colon = test system: HCT-116 colon
# SW-620 colon = test system: SW-620 colon
# HOP-92 NSCLC = test system: HOP-92 NSCLC
# MDA-N = test system: MDA-N
# TK-10 renal = test system: TK-10 renal
# HCT-15 colon = test system: HCT-15 colon
# SF-295 CNS = test system: SF-295 CNS
# M14 melanoma = test system: M14 melanoma
# HS 578T breast = test system: HS 578T breast
# 786-0 renal = test system: 786-0 renal
# SK-OV-3 ovarian = test system: SK-OV-3 ovarian
# SK-MEL-2 melanoma = test system: SK-MEL-2 melanoma
# NCI-H23 lung = test system: NCI-H23 lung
# NCI-H522 lung = test system: NCI-H522 lung
# KM12 colon = test system: KM12 colon
# SF-539 CNS = test system: SF-539 CNS
# SR leukemia = test system: SR leukemia
# HOP-62 NSCLC = test system: HOP-62 NSCLC
# LOX IMVI melanoma = test system: LOX IMVI melanoma
# COLO 205 colon = test system: COLO 205 colon
# OVCAR-3 ovarian = test system: OVCAR-3 ovarian
# HL-60(TB) leukemia = test system: HL-60(TB) leukemia
# CAKI-1 renal = test system: CAKI-1 renal
# SF-268 CNS = test system: SF-268 CNS
# NCI-H226 lung = test system: NCI-H226 lung
# HT29 colon = test system: HT29 colon
# EKVX NSCLC = test system: EKVX NSCLC
# UACC-62 melanoma = test system: UACC-62 melanoma
# IGROV1 ovarian = test system: IGROV1 ovarian
# BT-549 breast = test system: BT-549 breast
# MDA-MB-231 breast = test system: MDA-MB-231 breast
# SNB-19 CNS = test system: SNB-19 CNS
# MCF7 breast = test system: MCF7 breast
# RXF 393 renal = test system: RXF 393 renal
# UO-31 renal = test system: UO-31 renal
# MDA-MB-435 = test system: MDA-MB-435
# MALME-3M melanoma = test system: MALME-3M melanoma
# SK-MEL-28 melanoma = test system: SK-MEL-28 melanoma
# NCI-H460 lung = test system: NCI-H460 lung
# ACHN renal = test system: ACHN renal
# UACC-257 melanoma = test system: UACC-257 melanoma
# RPMI-8226 leukemia = test system: RPMI-8226 leukemia
# NCI/ADR-RES ovarian = test system: NCI/ADR-RES ovarian
# SK-MEL-5 melanoma = test system: SK-MEL-5 melanoma
# CCRF-CEM leukemia = test system: CCRF-CEM leukemia
# SNB-75 CNS = test system: SNB-75 CNS
# U251 CNS = test system: U251 CNS
# OVCAR-4 ovarian = test system: OVCAR-4 ovarian
# DU-145 prostate = test system: DU-145 prostate
# A549 NSCLC = test system: A549 NSCLC
# HCC-2998 colon = test system: HCC-2998 colon
# MOLT-4 leukemia = test system: MOLT-4 leukemia
# SN12C renal = test system: SN12C renal
# K-562 leukemia = test system: K-562 leukemia
# T-47D breast = test system: T-47D breast
# A498 renal = test system: A498 renal
# OVCAR-8 ovarian = test system: OVCAR-8 ovarian
compound,measurement,setting,value
CNC(=S)N/N=C/c1cccc(C)n1,TGI,OVCAR-5 ovarian,> 100 µM
same,TGI,PC-3 prostate,> 100 µM
same,TGI,HCT-116 colon,> 100 µM
same,TGI,SW-620 colon,> 100 µM
same,TGI,HOP-92 NSCLC,> 100 µM
same,TGI,MDA-N,> 100 µM
same,TGI,TK-10 renal,> 100 µM
same,TGI,HCT-15 colon,> 100 µM
same,TGI,SF-295 CNS,> 100 µM
same,TGI,M14 melanoma,47.8 µM
same,TGI,HS 578T breast,> 100 µM
same,TGI,786-0 renal,98.5 µM
same,TGI,SK-OV-3 ovarian,> 100 µM
same,TGI,SK-MEL-2 melanoma,> 100 µM
same,TGI,NCI-H23 lung,> 81.2 µM
same,TGI,NCI-H522 lung,> 86.2 µM
same,TGI,KM12 colon,> 100 µM
same,TGI,SF-539 CNS,39.7 µM
same,TGI,SR leukemia,> 78.1 µM
same,TGI,HOP-62 NSCLC,46.7 µM
same,TGI,LOX IMVI melanoma,> 73.8 µM
same,TGI,COLO 205 colon,> 85.2 µM
same,TGI,OVCAR-3 ovarian,> 100 µM
same,TGI,HL-60(TB) leukemia,> 75.9 µM
same,TGI,CAKI-1 renal,> 100 µM
same,TGI,SF-268 CNS,> 76 µM
same,TGI,NCI-H226 lung,> 83.9 µM
same,TGI,HT29 colon,> 100 µM
same,TGI,EKVX NSCLC,> 100 µM
same,TGI,UACC-62 melanoma,56.4 µM
same,TGI,IGROV1 ovarian,> 100 µM
same,TGI,BT-549 breast,86.3 µM
same,TGI,MDA-MB-231 breast,> 89 µM
same,TGI,SNB-19 CNS,> 100 µM
same,TGI,MCF7 breast,> 100 µM
same,TGI,RXF 393 renal,97.4 µM
same,TGI,UO-31 renal,> 100 µM
same,TGI,MDA-MB-435,> 100 µM
same,TGI,MALME-3M melanoma,> 100 µM
same,TGI,SK-MEL-28 melanoma,> 100 µM
same,TGI,NCI-H460 lung,60.9 µM
same,TGI,ACHN renal,> 96.5 µM
same,TGI,UACC-257 melanoma,> 100 µM
same,TGI,RPMI-8226 leukemia,> 100 µM
same,TGI,NCI/ADR-RES ovarian,63.3 µM
same,TGI,SK-MEL-5 melanoma,> 74.9 µM
same,TGI,CCRF-CEM leukemia,> 73.6 µM
same,TGI,SNB-75 CNS,90.9 µM
same,TGI,U251 CNS,> 100 µM
same,TGI,OVCAR-4 ovarian,> 100 µM
same,TGI,DU-145 prostate,> 83.2 µM
same,TGI,A549 NSCLC,> 100 µM
same,TGI,HCC-2998 colon,> 100 µM
same,TGI,MOLT-4 leukemia,> 87 µM
same,TGI,SN12C renal,64.1 µM
same,TGI,K-562 leukemia,> 100 µM
same,TGI,T-47D breast,> 92.4 µM
same,TGI,A498 renal,> 71 µM
same,TGI,OVCAR-8 ovarian,> 75.7 µM
